Target: T1, JAK2 (h) (Homo sapiens, UniProt O60674)
T1 construct: purchased Millipore UK Ltd (contract assay service)
Assay: JAK2 (h) kinase assay
Type: biochemical
Description: Kinase assays can be performed by measurement of incorporation of γ-^33P ATP into immobilized myelin basic protein (MBP). High binding white 384 well plates (Greiner) are coated with MBP (Sigma #M-1891) by incubation of 60 μL/well of 20 μg/mL MBP in Tris-buffered saline (TBS; 50 mM Tris pH 8.0, 138 mM NaCl, 2.7 mM KCl) for 24 h at 4° C. Plates are washed 3× with 100 μL TBS. Kinase reactions are carried out in a total volume of 34 μL in kinase buffer (according to the need to make, for example, 5 mM Hepes pH 7.6, 15 mM NaCl, 0.01% bovine gamma globulin (Sigma #1-5506), 10 mM MgCl2, 1 mM DTT, 0.02% TritonX-100). Compound dilutions are performed in DMSO and added to assay wells to a final DMSO concentration of 1%. Each data point is measured in duplicate, and at least two duplicate assays are performed for each individual compound determination. […] A mixture of unlabeled ATP and γ-^33P ATP is added to start the reaction (2×10^6 cpm of γ-^33P ATP per well (3000 Ci/mmole) and 10 μM unlabeled ATP, typically. The reactions are carried out for 1 h at room temperature with shaking. Plates are washed 7× with TBS, followed by the addition of 50 µL/well scintillation fluid (Wallac). Plates are read using a Wallac Trilux counter. This is only one format of such assays; various other formats are possible, as known to one skilled in the art. […]

T1 sequence (O60674 whole entry): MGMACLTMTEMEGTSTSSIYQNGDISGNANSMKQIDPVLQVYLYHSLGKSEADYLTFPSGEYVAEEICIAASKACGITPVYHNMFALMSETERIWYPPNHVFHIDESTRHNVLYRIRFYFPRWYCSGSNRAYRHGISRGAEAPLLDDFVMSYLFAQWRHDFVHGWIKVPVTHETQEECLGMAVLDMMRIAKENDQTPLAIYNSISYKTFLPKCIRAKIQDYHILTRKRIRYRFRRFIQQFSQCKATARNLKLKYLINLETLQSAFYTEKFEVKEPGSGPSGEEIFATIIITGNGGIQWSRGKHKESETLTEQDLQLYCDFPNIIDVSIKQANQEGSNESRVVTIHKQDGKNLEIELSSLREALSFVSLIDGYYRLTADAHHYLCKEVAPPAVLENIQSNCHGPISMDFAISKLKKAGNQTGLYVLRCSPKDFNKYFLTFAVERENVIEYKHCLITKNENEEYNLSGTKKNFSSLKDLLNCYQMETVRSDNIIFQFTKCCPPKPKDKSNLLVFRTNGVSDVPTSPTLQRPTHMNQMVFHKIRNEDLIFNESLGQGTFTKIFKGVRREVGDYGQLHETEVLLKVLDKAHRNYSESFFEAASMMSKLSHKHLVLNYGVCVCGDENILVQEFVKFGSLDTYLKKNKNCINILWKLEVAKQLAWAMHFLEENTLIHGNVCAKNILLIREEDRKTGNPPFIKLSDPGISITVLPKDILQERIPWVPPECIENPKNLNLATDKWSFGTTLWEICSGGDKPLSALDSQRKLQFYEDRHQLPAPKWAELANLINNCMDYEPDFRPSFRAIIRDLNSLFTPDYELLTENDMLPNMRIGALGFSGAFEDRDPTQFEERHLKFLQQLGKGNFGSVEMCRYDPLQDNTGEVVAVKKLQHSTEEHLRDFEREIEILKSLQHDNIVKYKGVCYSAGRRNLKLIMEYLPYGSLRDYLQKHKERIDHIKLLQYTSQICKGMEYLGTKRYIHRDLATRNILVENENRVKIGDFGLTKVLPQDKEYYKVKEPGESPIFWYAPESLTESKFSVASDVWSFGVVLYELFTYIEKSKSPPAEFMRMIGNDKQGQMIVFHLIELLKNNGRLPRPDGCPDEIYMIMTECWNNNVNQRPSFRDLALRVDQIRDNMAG

IC50: 350 nM
Structure (SMILES): CC(C)CS(=O)(=O)N[C@H]1COC2C1OC[C@H]2Nc1nc(Nc2cnn(C)c2)ncc1Cl (stereo partly drawn) [Ex. 2, N-((3S,6R)-6-((5-chloro-2-((1-methyl-1H-pyrazol-4-yl)amino)pyrimidin-4-yl)amino)hexahydrofuro[3,2-b]furan-3-yl)-2-methylpropane-1-sulfonamide]
